The record followed here is patent US7611863B2, “Selective staining of biomembranes using voltage-sensitive dyes” (Max-Planck-Gesellschaft zur Foerderung der Wissenschaften …, priority 2004, dated 2009).

Test [1] deals with phosphatase expressing cells. The experiment in a line: Destaining of cells after enzyme induced staining. The format is cell-based. Here is the method:
FIG. 18. Destaining. Cells were incubated with Di-12P-ASPBS for 30 seconds, then the medium containing the dye precursor was removed and the cells were washed twice in buffer containing no dye. Fluorescence images were recorded with excitation filter 450/50 nm, emission filter 510 nm, dichroic mirror 505 nm. A. Brightfield image of cells and fluorescence images of cells illustrating destaining of the cell membrane by diffusion of the dye into the bulk medium. B. Time course of destaining. The maximum fluorescence intensity of the membrane is plotted vs. time.
Destaining. […] Cells were incubated with Di-12P-ASPBS for 30 seconds, then the medium containing the dye precursor was removed and the cells were washed twice in buffer containing no dye.

The next test concerns human erythrocytes. The experiment in a line: Enzyme induced staining of red blood cells. The settings on record: 9.8 μM, PLAP added. It counts as cell-based. Here is the method: Enzyme induced staining of red blood cells. Human erythrocytes were prepared according to a slightly modified standard procedure^29. 4 ml of blood of MJH were sucked into a tube coated with EDTA (Vacutainer 367,861, Becton Dickinson, Meylan, France) and centrifuged for 10 min at 1600 g. The pellet (˜1 ml) was washed three times by resuspension and centrifugation for 10 min at 1600 g using 15 ml of a 300 mOsm Tris buffer (50 mM Tris, 110 mM NaCl, pH 7.4). Finally, the pellet was diluted with an equal volume of the same buffer additionally containing 1 mM CaCl2.
The staining experiments with erythrocytes were similar to those with giant vesicles. […]
Di-4-ASPP phosphate was added to human erythrocytes attached to a culture dish to a concentration of 9.8 μM. Membrane fluorescence was measured in the same setup as with giant vesicles. Fluorescence was weaker than with giant vesicles, which we attribute to fluorescence quenching by hemoglobin and the smaller size of the erythrocytes. […]
Plots of the intensity of a row of pixels cutting through the image of an erythrocyte at its maximum diameter are shown in B. The normalized maximum brightness minus the background signal versus time is shown in C. The ratio of final and initial fluorescence was F∞/F0=11-25 with an average of 15. These values are similar to the fluorescence enhancement on giant vesicles. […]

Test [2] has as its target alkaline phosphatase from the human placenta (PLAP) (Homo sapiens, UniProt P05187). The experiment in a line: Enzymatic dye hydrolysis (HPLC, isothermal titration calorimetry). It counts as biochemical. Here is the method: Enzyme kinetics with ITC. We performed enzyme kinetic measurements with Di-4-ASPP phosphate as a substrate of PLAP by isothermal titration calorimetry (ITC). We used Tris-NaCl buffer (20 mM Tris, 100 mM NaCl, pH 8.1) without Zn^2+ and Mg^2+ although most alkaline phosphatases depend on these metals for maximum activity. However, divalent cations bind to lipid membranes and induce their aggregation and fusion^25. The pH-value is a compromise between optimal enzymatic activity (at pH 9.8) and compatibility with vesicles and cells. The microcalorimeter (VP-ITC, Microcal, Northampton, Mass., USA) was thermostatted to 25.0° C., with reference power set to 10 μcal/sec and a stirring speed of 310 rpm. The sample cell contained a PLAP solution of 0.19 DEA Units/ml activity and the syringe was filled with a 1 mM solution of Di-4-ASPP phosphate. The reference cell contained buffer only. Different amounts of dye were injected into the sample cell in separate experiments to cover a concentration range from 2 μM to 15 μM. To determine the heats of dilution alone, injections were carried out with pure buffer. For both hydrolysis and dilution, the baseline signal was approximated by linear or polynomial functions and subtracted from the raw signal resulting in a curve with a flat baseline. The dilution signal was subtracted from the signal of the enzymatic reaction to yield the final calorimeter tracing of enzymatic hydrolysis. The molar heat of reaction was obtained by integration. The initial velocities were determined from the average heat of reaction of the first 10 to 30 seconds after the onset of the reaction, using the mean molar heat of reaction as a proportionality constant. […]
Enzymatic dye hydrolysis. […] We evaluated the heat production per unit time that is proportional to the reaction rate, with the molar heat of reaction being the constant of proportionality^38. […] By calibration with that energy, the initial reaction velocity was evaluated.

alkaline phosphatase from the human placenta (PLAP), sequence (P05187 23-506): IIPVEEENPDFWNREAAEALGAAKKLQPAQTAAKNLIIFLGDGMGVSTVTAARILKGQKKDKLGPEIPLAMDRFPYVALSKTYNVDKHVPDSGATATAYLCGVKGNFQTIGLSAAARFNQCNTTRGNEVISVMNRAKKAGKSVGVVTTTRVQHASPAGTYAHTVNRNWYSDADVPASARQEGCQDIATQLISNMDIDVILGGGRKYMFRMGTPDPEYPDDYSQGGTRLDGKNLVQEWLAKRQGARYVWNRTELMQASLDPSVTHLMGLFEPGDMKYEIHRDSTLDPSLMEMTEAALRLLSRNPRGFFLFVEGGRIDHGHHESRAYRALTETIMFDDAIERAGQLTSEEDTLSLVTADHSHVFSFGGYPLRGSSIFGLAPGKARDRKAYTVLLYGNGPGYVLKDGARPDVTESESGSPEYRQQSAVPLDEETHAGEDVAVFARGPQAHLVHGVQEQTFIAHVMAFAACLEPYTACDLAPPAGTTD

As to Di-12-phosphato-ASPBS [Di-12P-ASPBS], the “membrane leaflet to which the dye binds” value in test [1] was “binds almost exclusively to the extracellular leaflet”. Moreover, in test [1] (diffusion of bound dye to bulk medium), the “fluorescence of stained membranes over time after washing” value is on record as “the fluorescence intensity of the stained membranes declined”. Further, the “selectivity of staining after 30 seconds incubation and washing” value in test [1] (medium removed, washed twice) was “selective staining of phosphatase expressing cells could be observed”.

`CCCCN(CCCC)c1ccc(/C=C/c2cc[n+](CCCOP(=O)([O-])O)cc2)cc1` [Di-4-ASPP phosphate]: in the test with human erythrocytes, the “ratio of final and initial fluorescence F∞/F0, average” value was 15; the “ratio of final and initial fluorescence F∞/F0, range” value is reported as 11-25. The “acceptance as substrate by PLAP” value in test [2] (ITC kinetics) was “accepted by PLAP as a regular substrate”. The “molar heat of hydrolysis (endothermal)” value in test [2] (ITC, 25.0° C., Tris-NaCl pH 8.1) amounted to 0.263 ± 0.048 kcal/mol. The “conversion by soluble PLAP (HPLC analysis)” value in test [2] (after incubation, enzyme removed by ultrafiltration) was “quantitatively converted to Di-4-ASPP alcohol”.
